This is an account of results in ChEMBL document CHEMBL1130376, “Effects of taxoids from Taxus cuspidata on microtubule depolymerization and vincristine accumulation in MDR cells” (Bioorg Med Chem Lett, 1997).

Experiment [1] is described as follows: Cytotoxicity against human epidermoid carcinoma KB cells. Type of experiment: functional, cell-based.
The test system of experiment [2] is L1210. The experiment can be described thus: Cytotoxicity against murine leukemia L1210 cells. Type of experiment: functional, cell-based, Mus musculus.
Experiment [3] is described as follows: Vincristine (VCR) accumulation in multidrug resistant human ovarian cancer 2780 AD cells at a concentration 1 ug/mL. The format is functional.
Experiment [4] in a line: Vincristine (VCR) accumulation in multidrug resistant human ovarian cancer 2780 AD cells at a concentration 10 ug/mL. Type of experiment: functional.
Where [5] appears, read: Mus musculus, L1210, read-out: IC50.

Converted amounts (≈) assume the structure as drawn. Some results are limits rather than exact numbers.

With `C=C1[C@@H](OC(=O)/C=C/c2ccccc2)C[C@H](OC(C)=O)[C@@]2(COC(=O)c3ccccc3)[C@@H](OC(C)=O)[C@H](OC(C)=O)[C@]3(O)[C@@]4(C)CO[C@]3(C)C(=O)C[C@H]4[C@@H](OC(C)=O)[C@H]12`, the IC50 in experiment [1] and in experiment [2] (setting [5]) was greater than 10 µg/mL each time. The “vincristine accumulation (% of control)” value is recorded as 169% in experiment [3] and 537% in experiment [4].
Take `CC(=O)O[C@@H]1C2=C(C)[C@@H](O)C[C@@]2(C(C)(C)O)[C@@H](OC(C)=O)[C@@H]2[C@]3(OC(C)=O)CO[C@@H]3C[C@H](OC(C)=O)[C@@]2(C)[C@H]1OC(C)=O`: the IC50 in experiment [1] and in experiment [2] (setting [5]) was greater than 10 µg/mL each time. Besides, the “vincristine accumulation (% of control)” value in experiment [3] is 147%; in experiment [4] it was 235%.
In the case of `CC(=O)O[C@@]12CO[C@@H]1C[C@@H](O)[C@@]1(C)C(=O)[C@H](O)C3=C(C)[C@@H](OC(=O)[C@H](O)C(NC(=O)c4ccccc4)c4ccccc4)C[C@@](O)([C@@H](OC(=O)c4ccccc4)[C@H]21)C3(C)C` (stereo partly drawn), the values for the IC50 in experiment [1] and in experiment [2] (setting [5]) were 0.013 µg/mL (≈ 0.016 µM) and 0.71 µg/mL (≈ 0.875 µM), respectively. Further, the “vincristine accumulation (% of control)” value in experiment [3] came to 192%; in experiment [4], 218%.
`C=C1[C@@H](OC(=O)/C=C/c2ccccc2)C[C@H](OC(C)=O)[C@@]2(C)[C@@H](OC(C)=O)[C@H](OC(C)=O)[C@]3(O)[C@@]4(C)CO[C@]3(C)C(=O)C[C@H]4[C@@H](OC(C)=O)[C@H]12` [TAXAGIFINE]: the IC50 in experiment [1] amounted to 0.86 µg/mL (≈ 1.23 µM); in experiment [2] (setting [5]) it was 1.3 µg/mL (≈ 1.87 µM). Besides, the “vincristine accumulation (% of control)” value in experiment [3] worked out at 194%; in experiment [4], 242%.
Take `C=C1[C@@H](OC(=O)/C=C/c2ccccc2)CC[C@]2(C)[C@@H]1C[C@@H]1C[C@H](OC(C)=O)C(C)=C([C@@H](OC(C)=O)[C@@H]2OC(C)=O)C1(C)C`: the half-maximal inhibitory concentration (IC50) came out at 8.2 µg/mL (≈ 13.8 µM) in experiment [1] and 9.5 µg/mL (≈ 16 µM) in experiment [2] (setting [5]). Also, the “vincristine accumulation (% of control)” value is given as 102% in experiment [3] and 517% in experiment [4].
Turning to `C=C1[C@@H](OC(=O)/C=C/c2ccccc2)C[C@H](OC(C)=O)[C@@]2(C)[C@@H](OC(C)=O)[C@H](OC(C)=O)C3=C(C)C(=O)C[C@@H]([C@@H](OC(C)=O)[C@H]12)C3(C)C`, the IC50 in experiment [1] and in experiment [2] (setting [5]) was greater than 10 µg/mL in each case. The entries for the “vincristine accumulation (% of control)” value in experiment [3] and in experiment [4] were 116% and 438%, respectively.
Consider `C=C1[C@@H](OC(=O)/C=C/c2ccccc2)CC[C@@]2(C)[C@@H](OC(C)=O)[C@H](OC(C)=O)C3=C(C)C(=O)C[C@@](O)([C@@H](OC(C)=O)[C@H]12)C3(C)C`, for which the IC50 in experiment [1] is 6.9 µg/mL (≈ 11.1 µM); in experiment [2] (setting [5]), 4.6 µg/mL (≈ 7.39 µM). Moreover, the “vincristine accumulation (% of control)” value in experiment [3] was 167%; in experiment [4], 436%.
In the same order, the values of `C=C1[C@@H](OC(=O)/C=C/c2ccccc2)C[C@H](OC(C)=O)[C@]2(C)[C@@H]1C[C@]1(C(C)(C)O)C[C@H](OC(C)=O)C(C)=C1[C@@H](O)[C@@H]2OC(C)=O` are 5.8 µg/mL (≈ 9.28 µM), 1.2 µg/mL (≈ 1.92 µM), 176% and 584%.
As for `CC(=O)O[C@H]1C[C@H]2[C@@H](OC(C)=O)/C=C3\C[C@](C)(C(=O)[C@H](O)C(=C1C)C2(C)C)[C@@H](OC(C)=O)C[C@@H]3OC(=O)C(O)C(c1ccccc1)N(C)C` (stereo partly drawn), the IC50 in experiment [1] was greater than 10 µg/mL; in experiment [2] (setting [5]), 7.1 µg/mL (≈ 10.4 µM). The “vincristine accumulation (% of control)” value in experiment [3] is recorded as 119%; in experiment [4] it was 298%.
Taken in the same sequence, the figures for `CC(=O)O[C@@]12CO[C@H]1C[C@H](O)[C@@]1(C)C(=O)[C@H](O)C3=C(C)[C@@H](O)C[C@@](O)([C@@H](OC(=O)c4ccccc4)[C@H]21)C3(C)C` were greater than 10 µg/mL, greater than 10 µg/mL, 153% and 271%.
For `CC(=O)O[C@@]12CO[C@@H]1C[C@H](O)[C@@]1(C)C(=O)[C@H](O)C3=C(C)[C@@H](OC(=O)[C@H](O)C(NC(=O)c4ccccc4)c4ccccc4)C[C@@](O)([C@@H](OC(=O)c4ccccc4)[C@H]21)C3(C)C` (stereo partly drawn), the values for the IC50 in experiment [1] and in experiment [2] (setting [5]) were 0.015 µg/mL (≈ 0.0185 µM) and 0.88 µg/mL (≈ 1.08 µM), respectively.
Taken in the same sequence, the figures for `CCCCCC(=O)NC(c1ccccc1)[C@@H](O)C(=O)O[C@H]1C[C@@]2(O)[C@@H](OC(=O)c3ccccc3)[C@@H]3[C@]4(OC(C)=O)CO[C@@H]4C[C@H](O)[C@@]3(C)C(=O)[C@H](O)C(=C1C)C2(C)C` (stereo partly drawn) were 0.0017 µg/mL (≈ 0.00211 µM) and 0.24 µg/mL (≈ 0.298 µM).
With `CC(=O)O[C@H]1C[C@@H]2OC[C@@]2(OC(C)=O)[C@H]2[C@H](OC(=O)c3ccccc3)[C@]3(O)C[C@H](O)C(C)=C([C@@H](O)[C@H](O)[C@]12C)C3(C)C`, the IC50 in experiment [1] stood at 0.08 µg/mL (≈ 0.136 µM); in experiment [2] (setting [5]) it was 0.27 µg/mL (≈ 0.459 µM).
Taken in the same sequence, the figures for `C=C1[C@@H](OC(C)=O)CC[C@@]2(C)[C@@H](OC(C)=O)[C@H](OC(C)=O)C3=C(C)[C@@H](OC(C)=O)C[C@@H]([C@@H](OC(C)=O)[C@H]12)C3(C)C` were greater than 10 µg/mL and greater than 10 µg/mL.
Turning to `CCCCCC(=O)NC(c1ccccc1)[C@@H](O)C(=O)O[C@H]1C[C@@]2(O)[C@@H](OC(=O)c3ccccc3)[C@@H]3[C@]4(OC(C)=O)CO[C@@H]4C[C@H](O)[C@@]3(C)C(=O)[C@H](OC(C)=O)C(=C1C)C2(C)C` (stereo partly drawn), the IC50 in experiment [1] came out at 0.0053 µg/mL (≈ 0.00625 µM); in experiment [2] (setting [5]), 0.21 µg/mL (≈ 0.248 µM).
Regarding `CC(=O)O[C@H]1C(=O)[C@@]2(C)[C@H]([C@H](OC(=O)c3ccccc3)[C@]3(O)C[C@H](OC(=O)[C@H](O)[C@@H](NC(=O)c4ccccc4)c4ccccc4)C(C)=C1C3(C)C)[C@]1(OC(C)=O)CO[C@@H]1C[C@@H]2O` (mixture of isomers) [PACLITAXEL], the IC50 in experiment [2] (l1210) worked out at 0.026 µg/mL. The “vincristine accumulation (% of control)” value in experiment [3] is recorded as 132%; in experiment [4], 138%.
For `COc1ccc(CCN(C)CCCC(C#N)(c2ccc(OC)c(OC)c2)C(C)C)cc1OC` (stereo not drawn) [VERAPAMIL], the “vincristine accumulation (% of control)” value was 254% in experiment [3] and 739% in experiment [4].
Take `CCCC(=O)NC(c1ccccc1)[C@@H](O)C(=O)O[C@H]1C[C@@]2(O)[C@@H](OC(=O)c3ccccc3)[C@@H]3[C@]4(OC(C)=O)CO[C@@H]4C[C@H](O)[C@@]3(C)C(=O)[C@H](OC(C)=O)C(=C1C)C2(C)C` (stereo partly drawn): the IC50 in experiment [1] was determined as 0.016 µg/mL (≈ 0.0195 µM); in experiment [2] (setting [5]), 0.21 µg/mL (≈ 0.256 µM).
For `CC(=O)O[C@H]1C[C@@H]2OC[C@@]2(OC(C)=O)[C@H]2[C@H](OC(C)=O)[C@]3(O)C[C@H](OC(=O)CC(c4ccccc4)N(C)C)C(C)=C([C@@H](OC(=O)c4ccccc4)[C@H](OC(C)=O)[C@]12C)C3(C)C` (stereo partly drawn), the values for the IC50 in experiment [1] and in experiment [2] (setting [5]) were greater than 10 µg/mL and 7.8 µg/mL (≈ 9.2 µM), respectively.
As for `CC(=O)O[C@H]1C(=O)[C@@]2(C)[C@H]([C@H](OC(=O)c3ccccc3)[C@]3(O)C[C@H](OC(=O)[C@H](O)[C@@H](NC(=O)c4ccccc4)c4ccccc4)C(C)=C1C3(C)C)[C@]1(OC(C)=O)CO[C@@H]1C[C@@H]2O` [PACLITAXEL], the “vincristine accumulation (% of control)” value in experiment [3] amounted to 83%; in experiment [4] it was 56%.
Consider `CC(=O)O[C@@]12CO[C@@H]1C[C@H](O)[C@@]1(C)C(=O)[C@H](O)C3=C(C)[C@@H](OC(=O)[C@H](O)C(NC(=O)C4CCC4)c4ccccc4)C[C@@](O)([C@@H](OC(=O)c4ccccc4)[C@H]21)C3(C)C` (stereo partly drawn), for which the IC50 in experiment [1] came out at 0.0048 µg/mL (≈ 0.00608 µM); in experiment [2] (setting [5]), 0.95 µg/mL (≈ 1.2 µM).
